Experimental data from patent publication US4746675A, “External pharmaceutical composition” (Teijin Limited, priority 1983, dated 1988).
Where two headings read alike, the source gives them in different places.

Key:
[1] = diffusion of drug through egg shell membrane in diffusion cell; assay type: in vitro ADME
Method: A diffusion cell was partitioned by an egg shell membrane. […] While maintaining a temperature of 37° C., the two liquid phases were stirred, and after a lapse of a predetermined period of time, the amount of the drug which diffused into the acceptor side from the donor side was measured.
The diffusion cell used was a glass cell for use in an ordinary diffusion experiment. The egg shell was obtained by removing the contents of an egg from the shell, immersing the shell in 0.7% acetic acid for 30 minutes, subjecting it to ultrasonication for 15 minutes, and carefully peeling the membrane from the shell.
A control test was carried out in the same way as above except that only the drug was added to the donor side.
The amount of the drug which diffused to the acceptor side was measured 30 minutes later, and compared with the control.
The relative amount of the drug diffused from the drug-penetration enhancer system was calculated by taking the amount of the drug diffused from the control donor side as 100. […] Bull., Vol. 20, p.

carrageenan edema = carrageenan edema inhibiting effect of betamethasone valerate ointments; assay type: in vivo, rat; details: Table 5, betamethasone valerate ointment with penetration enhancer
Method: An ointment was prepared from 0.15 part by weight of betamethasone valerate, 9.85 parts by weight of compound (168) and 90 parts by weight of the hydrophilic ointment.
In accordance with the method of R. Passarella et al. [Argneim. Forsch 30, (I), Nr. 4, 647-651 (1980)], the carrageenan edema inhibiting effect of the above ointment was examined. Specifically, 0.1 ml of a 1% carrageenan suspension in 0.9% NaCl solution was injected into the tip of the right leg of a rat (body weight 150-175 g). The foot volume was measured immediately after administration of carrageenan and 3, 5, and 6 hours after the administration by means of a mercury displacement device. 0.5, 1 and 2 hours after the administration of carrageenan, 100 mg of the ointment was well […] into each of the sites which underwent inflammation.
Various ointments were prepared from 0.15 part by weight of betamethasone valerate, […] of the various penetration enhancers shown in Table 5, and 85 parts by weight of the hydrophilic ointment, and tested in the same way as in Example 23.

serum calcium level = test: serum calcium after intrarectal administration of calcitonin composition to rats; assay type: in vivo, rat; details: versus the comparative suppository
Source text: Cacao butter (93 parts by weight) and 7 parts by weight of compound (168) or compound (173) were uniformly mixed, and (Asu^1.7)-eel calcitonin was gradually added and mixed to form a uniform composition. The composition was slightly warmed, and placed into a suppository container to form a suppository for rats having a diameter of about 3 mm and a length of about 6 mm. This suppository contained 0.7 MRC unit of calcitonin. The suppository was intrarectally administered to a rat, and the concentration of calcium in the blood serum after administration was measured by using a calcium measuring kit (made by Iatoron Co.).
Various […] were prepared from cacao butter, the various penetration enhancers shown in Table 12 and [Asu^1.7 ]-eel calcitonin, and tested in the same way as in Example 85.

blood glucose level = test: blood glucose after intrarectal administration of hog insulin suppository to rabbits; assay type: in vivo, rabbit; details: for Percent decrease of the blood glucose level from that before the administration: hog insulin 9.6 units, intrarectal, rabbit
Method: Sixty parts by weight of fractionated coconut oil and 10 parts by weight of compound (168) or compound (173) were uniformly mixed, and then hog insulin was gradually added to form a uniform dispersion. The dispersion was filled in a gelatin capsule for suppositories to form a gelatin capsular suppository. These suppository contained 9.6 units of insulin. The suppository was intrarectally administered to a rabbit, and the blood glucose level after administration was measured by the glucose oxidase method.

[2] = test system: eye (cornea, iris, conjunctiva); test: primary eye irritation (Draize) in rabbits; assay type: in vivo, white native male rabbits; details: 2.4% soln, average of three rabbits
Method: enhancers of this invention shown in Table 17 was applied dropwise to one eye of white native male rabbits (body weight 2.0 to 3.0 kg; 3 per group) which, it had been ascertained, were free from any trouble at the cornea, iris and conjunctiva. Nothing was applied to the other eye. Thus, irritation of the absorption aid to the mucous membrane of the eyes were examined, and scores were calculated in accordance with the Draize's eye irritation evaluating method [Association of Foods, "Drugs and Cosmetics" (1957)].
As a control, sodium laurylsulfate, a kind of surface-active agent, was evaluated in the same way, and the results are also shown in Table 17.

[3] = concentration of indomethacin in rat blood after application of ointment to the back; details: rat, in vivo
Method: An ointment was prepared from 1 part by weight of indomethacin, 10 parts by weight of compound (168) and 89 parts by weight of a hydrophilic ointment (composed of 250 parts of white Vaseline, 220 parts by weight of stearyl alcohol, 120 parts by weight of propylene glycol, 15 parts by weight of sodium laurylsulfate, 0.25 part by weight of ethyl p-hydroxybenzoate, 0.15 part by weight of propyl p-hydroxybenzoate and a small amount of purified water). The back of a rat (body weight about 250 g) was cut by an electric hair-clipper, and 100 mg of the resulting ointment was applied by a finger to a circular unhaired portion, 4 cm in diameter. The blood was drawn from the tail of the rat periodically, and the concentration of indomethacin in the blood was determined periodically by high-performance liquid chromatography.
Various ointments were prepared from 1 part by weight of indomethacin, 10 parts of each of various penetration enhancers shown in Table 2 and the hydrophilic ointment, and tested as in Example 1.

[4] = 30 minutes, drug 0.05% with compound (168) 1.0% on donor side, drug alone = 100, 37° C.

C=C1/C(=C\C=C2/CCC[C@]3(C)[C@@H]([C@H](C)CCCC(C)(C)O)CC[C@@H]23)C[C@@H](O)C[C@@H]1O [1,25-Dihydroxyvitamin D3]
Relative amount of the drug diffused [1]: 123

O=c1[nH]cc(F)c(=O)[nH]1 [5-Fluorouracil]
Relative amount of the drug diffused [1, 4]: 208

Cc1ccc(Cl)c(OCC(O)CNC(C)(C)C)c1 (centres unmarked) [Bupranolol]
Relative amount of the drug diffused [1]: 141

CC(=O)OCC1=C(C(=O)O)N2C(=O)[C@@H](NC(=O)Cc3cccs3)[C@H]2SC1 [Cephalothin]
Relative amount of the drug diffused [1, 4]: 139

CN(C)CCCN1c2ccccc2Sc2ccc(Cl)cc21 [Chlorpromazine]
Relative amount of the drug diffused [1, 4]: 133

CCCCCCCCCCCCCCCCCC(=O)OCC(O)COC(=O)[C@@H]1CCC(=O)N1 (some centres unmarked) [Compound (173), 2-hydroxy-3-octadecanoyloxy-1-pyroglutamyloxypropane]
Percentage inhibition vs. control (carrageenan edema; 3 hrs): 15.3% | Percentage inhibition vs. control (carrageenan edema; 5 hrs): 32.3% | Percentage inhibition vs. control (carrageenan edema; 6 hrs): 33.4% | absorption of calcitonin from the suppository (serum calcium level): better | Percent decrease of the blood glucose level from that before the administration (blood glucose level; 30 min): 29.4% | Percent decrease of the blood glucose level from that before the administration (blood glucose level; 1 hr): 33.3% | Percent decrease of the blood glucose level from that before the administration (blood glucose level; 2 hrs): 18.6% | Percent decrease of the blood glucose level from that before the administration (blood glucose level; 3 hrs): 3.7% | absorption of insulin from the suppository (blood glucose level; versus the comparative suppository): better

CCCCCCCCC1(CCCCCCCC)OCC(COC(=O)C2CCC(=O)N2)O1 (centres unmarked) [Compound (214), 2,3-dioxo-(dioctyl)methylene-1-pyroglutamyloxypropane]
Percentage inhibition vs. control (carrageenan edema; 3 hrs): 18.2% | Percentage inhibition vs. control (carrageenan edema; 5 hrs): 35.3% | Percentage inhibition vs. control (carrageenan edema; 6 hrs): 35.5% | Primary irritation score, Conjunctiva ([2]; 1 hour): 2.0 | Primary irritation score, Cornea ([2]; 1 hour): 0 | Primary irritation score, Iris ([2]; 1 hour): 0 | Primary irritation score, Total ([2]; 1 hour): 2.0 | Primary irritation score, Conjunctiva ([2]; 3 hours): 2.0 | Primary irritation score, Cornea ([2]; 3 hours): 0 | Primary irritation score, Iris ([2]; 3 hours): 0 | Primary irritation score, Total ([2]; 3 hours): 2.0 | Primary irritation score, Conjunctiva ([2]; 6 hours): 2.0 | Primary irritation score, Cornea ([2]; 6 hours): 0 | Primary irritation score, Iris ([2]; 6 hours): 0 | Primary irritation score, Total ([2]; 6 hours): 2.0 | Primary irritation score, Conjunctiva ([2]; 24 hours): 0 | Primary irritation score, Cornea ([2]; 24 hours): 0 | Primary irritation score, Iris ([2]; 24 hours): 0 | Primary irritation score, Total ([2]; 24 hours): 0 | Primary irritation score, Conjunctiva ([2]; 48 hours): 0 | Primary irritation score, Cornea ([2]; 48 hours): 0 | Primary irritation score, Iris ([2]; 48 hours): 0 | Primary irritation score, Total ([2]; 48 hours): 0 | Primary irritation score, Conjunctiva ([2]; 72 hours): 0 | Primary irritation score, Cornea ([2]; 72 hours): 0 | Primary irritation score, Iris ([2]; 72 hours): 0 | Primary irritation score, Total ([2]; 72 hours): 0 | Primary irritation score, Conjunctiva ([2]; 96 hours): 0 | Primary irritation score, Cornea ([2]; 96 hours): 0 | Primary irritation score, Iris ([2]; 96 hours): 0 | Primary irritation score, Total ([2]; 96 hours): 0 | Primary irritation score, Conjunctiva ([2]; 168 hours): 0 | Primary irritation score, Cornea ([2]; 168 hours): 0 | Primary irritation score, Iris ([2]; 168 hours): 0 | Primary irritation score, Total ([2]; 168 hours): 0

CN1C(=O)CN=C(c2ccccc2)c2cc(Cl)ccc21 [Diazepam]
Relative amount of the drug diffused [1, 4]: 144

C[C@]12CC[C@@H]3c4ccc(O)cc4CC[C@H]3[C@@H]1CC[C@@H]2O [Estradiol]
Relative amount of the drug diffused [1]: 181

COC1=CC(=O)C[C@@H](C)[C@]12Oc1c(Cl)c(OC)cc(OC)c1C2=O [Griseofulvin]
Relative amount of the drug diffused [1]: 209

COc1ccc2c(c1)c(CC(=O)O)c(C)n2C(=O)c1ccc(Cl)cc1 [Indomethacin]
Relative amount of the drug diffused [1, 4]: 217

C[C@](N)(Cc1ccc(O)c(O)c1)C(=O)O [Methyldopa]
Relative amount of the drug diffused [1, 4]: 137

CN1C(C(=O)Nc2ccccn2)=C(O)c2ccccc2S1(=O)=O [Piroxicam]
Relative amount of the drug diffused [1]: 177

CCN(CC)CCOC(=O)c1ccc(N)cc1 [Procaine]
Relative amount of the drug diffused [1, 4]: 149

O=C1CC[C@@H](C(=O)O)N1 [Pyroglutamic acid, pyroglutamic acid]
Concentration of indomethacin in the blood ([3]; 60 min): 1400 ng/mL | Concentration of indomethacin in the blood ([3]; 180 min): 2200 ng/mL | Concentration of indomethacin in the blood ([3]; 300 min): 2000 ng/mL | Concentration of indomethacin in the blood ([3]; 420 min): 1800 ng/mL | Concentration of indomethacin in the blood ([3]; 1440 min): 700 ng/mL

O=C(O)c1ccccc1O [Salicylic acid]
Relative amount of the drug diffused [1, 4]: 203

CN1[C@@H]2C[C@@H](OC(=O)[C@H](CO)c3ccccc3)C[C@H]1[C@@H]1O[C@@H]12 [Scopolamine]
Relative amount of the drug diffused [1, 4]: 116

O=C(O)c1cc(=O)c2c(OCC(O)COc3cccc4oc(C(=O)O)cc(=O)c34)cccc2o1 [Sodium cromoglicate]
Relative amount of the drug diffused [1]: 159

CC1(C)O[C@@H]2C[C@H]3[C@@H]4CCC5=CC(=O)C=C[C@]5(C)[C@@]4(F)[C@@H](O)C[C@]3(C)[C@]2(C(=O)CO)O1 [Triamcinolone acetonide]
Relative amount of the drug diffused [1, 4]: 214

Nc1ccc(C(=O)O)cc1 [p-Aminobenzoic acid]
Relative amount of the drug diffused [1]: 122

Urokinase
Relative amount of the drug diffused [1, 4]: 115

iso-Sorbitol nitrate
Relative amount of the drug diffused [1, 4]: 128
